Measured values as given in PMC8956739, “A synthetic lipopeptide targeting top-priority multidrug-resistant Gram-negative pathogens” (Nature Communications, 2022).
Values after ≈ are worked out from the molar mass of the structure shown. Values joined by “and” are separate entries in the source; they are usually repeats but may differ in a detail not shown here. Equal entries are not always repeated. Residues, ends and D or L forms follow the SMILES beside them.

Tests used:
Swiss mice, kidney = assay: Nephrotoxicity in mice (kidney histopathology); assay type: in vivo, mouse; conditions: for Kidney histopathology (SQS Score): 72 mg/kg/d subcutaneously in six divided doses every 2 h, n = 3; for Kidney histopathology, mice with the SQS score: mouse, in vivo
Method in brief: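 Female Swiss mice (7-week-old, 22–28 g) received lipopeptides in saline either s.c. at 12 mg/kg ×6 every 2 h (total 72 mg/kg, n = 3) or i.p. at 20 or 25 mg/kg ×6 every 2 h (total 120 mg/kg, n = 6; 150 mg/kg, n = 3). Right kidney collected 20 h after last dose, fixed in 10% buffered formalin (pH 7.4), histology scored blinded.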

[1] = tested on: P. aeruginosa FADDI-PA038; assay type: cell-based, Pseudomonas aeruginosa; conditions: FADDI-PA038
Method in brief: (§1)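 Susceptibility: microdilution MIC in CaMHB.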

P. aeruginosa ATCC 27853 [2] = assay type: cell-based, Pseudomonas aeruginosa; conditions: ATCC 27853
Method in brief: as §1

[3] = tested on: P. aeruginosa FADDI-PA025; assay type: cell-based, Pseudomonas aeruginosa; conditions: FADDI-PA025
Method in brief: as §1

P. aeruginosa ATCC 27853 [4] = assay: Neutropenic mouse bloodstream infection model; assay type: in vivo; conditions: single IV dose 4 mg/kg; for Log10 CFU/mL blood at 4 h, Mean / Δlog10 CFU/mL blood (mean) / Log10 CFU/mL blood at 4 h, single mouse: 4 h; for Δlog10 CFU/mL blood (mean): treated minus control, mean of replicates; for Δlog10 CFU/mL blood (mean) / Log10 CFU/mL blood at 4 h, single mouse / Delta Log10 CFU/mL blood at 4 h, single mouse: 4 mg/kg; for Delta Log10 CFU/mL blood at 4 h, single mouse: treated mouse minus mean of vehicle mice
Method in brief: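 Female Swiss mice made neutropenic with cyclophosphamide (150 mg/kg day −4, 100 mg/kg day −1), infected IV with 50 µL of 4 × 10^8 CFU/mL. Lipopeptide 4 mg/kg (free base) IV at 2 h post-inoculation, n = 3. Efficacy = Δlog10 CFU/mL blood versus saline at 4 h post-dose.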

A. baumannii FADDI-AB034 = assay type: cell-based, Acinetobacter baumannii; conditions: FADDI-AB034
Method in brief: as §1

A. baumannii ATCC 19606 = assay type: cell-based, Acinetobacter baumannii; conditions: ATCC 19606
Method in brief: as §1

A. baumannii FADDI-AB030 = assay type: cell-based, Acinetobacter baumannii; conditions: FADDI-AB030
Method in brief: as §1

Swiss mice = assay: Acute toxicity in mice (maximum tolerated dose, IV bolus); assay type: in vivo, mouse; conditions: replicates 1-4
Experimental: (§2) Lipopeptide solutions were prepared in 0.9% saline and stored at 4 °C before use. Swiss mice (female, 7-week-old, 22–28 g) were used in the study. A mouse was administered an intravenous bolus of the lipopeptide (mg/kg free base) through a lateral tail vein (≤0.1 mL). After the injection, the mouse was released back into the cage and monitored for clinical signs of toxicity from 0 to 24 h after injection as follows: every 10 min in the first 2 h, every half hour from 2 to 4 h, every hour from 4 to 12 h, and every 2 h from 12 to 24 h.

[5] = as above; assay type: in vivo, mouse; conditions: mouse, in vivo, iv, single IV bolus dose, replicates 1-4; read-out: MTD, single replicate
Experimental: as §2

[6] = tested on: K. pneumoniae FADDI-KP065; assay type: cell-based, Klebsiella pneumoniae; conditions: FADDI-KP065
Method in brief: as §1

[7] = tested on: K. pneumoniae FADDI-KP032; assay type: cell-based, Klebsiella pneumoniae; conditions: FADDI-KP032
Method in brief: as §1

human subjects = conditions: in vivo; cited from earlier work

Compound	Kidney histopathology (SQS Score) (Swiss mice, kidney)	Kidney histopathology, mice with the SQS score (Swiss mice, kidney)	MIC P. aeruginosa FADDI-PA038 [1] [mg/L]	MIC P. aeruginosa ATCC 27853 (P. aeruginosa ATCC 27853 [2]) [mg/L]	MIC, No Survanta (P. aeruginosa ATCC 27853 [2]) [mg/L]	MIC P. aeruginosa FADDI-PA025 [3] [mg/L]	Log10 CFU/mL blood at 4 h, Mean (P. aeruginosa ATCC 27853 [4]) [Log10 CFU/mL blood]	Δlog10 CFU/mL blood (mean) (P. aeruginosa ATCC 27853 [4]) [log10 CFU/mL blood]	Log10 CFU/mL blood at 4 h, single mouse (P. aeruginosa ATCC 27853 [4])	Delta Log10 CFU/mL blood at 4 h, single mouse (P. aeruginosa ATCC 27853 [4])	MIC A. baumannii FADDI-AB034 (A. baumannii FADDI-AB034) [mg/L]	MIC A. baumannii ATCC 19606 (A. baumannii ATCC 19606) [mg/L]	MIC A. baumannii FADDI-AB030 (A. baumannii FADDI-AB030) [mg/L]	MTD, single replicate (Swiss mice)	MTD [5] [mg/kg]	MIC K. pneumoniae FADDI-KP065 [6] [mg/L]	MIC K. pneumoniae FADDI-KP032 [7] [mg/L]	single dose at which neurotoxicity was observed (human subjects)
CC[C@@H]1NC(=O)[C@@H](CC(C)C)NC(=O)[C@H](CCN)NC(=O)[C@@H](NC(=O)[C@H](CN)NC(=O)[C@@H](NC(=O)[C@H](CCN)NC(=O)c2cc(Cl)cc(Cl)c2)[C@@H](C)O)CCNC(=O)[C@H]([C@@H](C)O)NC(=O)[C@H](CCN)NC(=O)[C@H](CCN)NC1=O [Lipopeptide F381] (HELM PEPTIDE1{[O=C(c1cc(Cl)cc(Cl)c1)[*:2]].[Dab].T.[NC[C@H](N[*:1])C(=O)[*:2]].[Dab].[Dab].[dL].[Abu].[Dab].[Dab].T}$PEPTIDE1,PEPTIDE1,5:R3-11:R2$$$V2.0)	+1 (SQS + 1 = mild damage (overall score, 1 to <15))	1/3	1 (≈ 0.862 µM)	0.25 (≈ 0.215 µM)	0.5 (≈ 0.431 µM)	0.5 (≈ 0.431 µM)	4.49	−3.45	4.47 Log10 CFU/mL blood and 4.87 Log10 CFU/mL blood and 4.12 Log10 CFU/mL blood	-3.47 Log10 CFU/mL blood and -3.07 Log10 CFU/mL blood and -3.82 Log10 CFU/mL blood	0.25 (≈ 0.215 µM)	0.5 (≈ 0.431 µM)	0.25 (≈ 0.215 µM)	4.7 mg/kg and 4 mg/kg	5	0.5 (≈ 0.431 µM)	<0.125	
CC[C@@H]1NC(=O)[C@@H](CC(C)C)NC(=O)[C@H](CCN)NC(=O)[C@@H](NC(=O)[C@H](CN)NC(=O)[C@@H](NC(=O)[C@H](CCN)NC(=O)c2ccc(-c3ccccc3)cc2)[C@@H](C)O)CCNC(=O)[C@H]([C@@H](C)O)NC(=O)[C@H](CCN)NC(=O)[C@H](CCN)NC1=O [Lipopeptide F477] (HELM PEPTIDE1{[O=C(c1ccc(-c2ccccc2)cc1)[*:2]].[Dab].T.[NC[C@H](N[*:1])C(=O)[*:2]].[Dab].[Dab].[dL].[Abu].[Dab].[Dab].T}$PEPTIDE1,PEPTIDE1,5:R3-11:R2$$$V2.0)	+1 (SQS + 1 = mild damage (overall score, 1 to <15))	1/3	1 (≈ 0.857 µM)	1 (≈ 0.857 µM)	1 (≈ 0.857 µM)	1 (≈ 0.857 µM)	3.39	−3.89	3.09 Log10 CFU/mL blood and 3.94 Log10 CFU/mL blood and 3.15 Log10 CFU/mL blood	-4.19 Log10 CFU/mL blood and -3.34 Log10 CFU/mL blood and -4.13 Log10 CFU/mL blood	0.25 (≈ 0.214 µM)	1 (≈ 0.857 µM)	0.5 (≈ 0.428 µM)	10.1 mg/kg and 11.1 mg/kg	10	0.25 (≈ 0.214 µM)	0.25 (≈ 0.214 µM)	
SPR206																		exceeding 200 mg
